Measurements reported in paper PMC11509018, “Evaluation of the Role of Tanshinone I in an In Vitro System of Charcot-Marie-Tooth Disease Type 2N” (International Journal of Molecular Sciences, 2024).
Numbering of substitutions follows the chain as printed.

Columns and labels:
AlaRS^R326W = molecular target: T1, AlaRS^R326W (Homo sapiens, UniProt P49588, R326W); assay: Proteolytic digestion assay (trypsin, SDS-PAGE); details: three hours
T1 construct: made in house; host or cells: E. coli BL21 (DE3), pET-21a
T1 sequence (P49588 1-968 R326W): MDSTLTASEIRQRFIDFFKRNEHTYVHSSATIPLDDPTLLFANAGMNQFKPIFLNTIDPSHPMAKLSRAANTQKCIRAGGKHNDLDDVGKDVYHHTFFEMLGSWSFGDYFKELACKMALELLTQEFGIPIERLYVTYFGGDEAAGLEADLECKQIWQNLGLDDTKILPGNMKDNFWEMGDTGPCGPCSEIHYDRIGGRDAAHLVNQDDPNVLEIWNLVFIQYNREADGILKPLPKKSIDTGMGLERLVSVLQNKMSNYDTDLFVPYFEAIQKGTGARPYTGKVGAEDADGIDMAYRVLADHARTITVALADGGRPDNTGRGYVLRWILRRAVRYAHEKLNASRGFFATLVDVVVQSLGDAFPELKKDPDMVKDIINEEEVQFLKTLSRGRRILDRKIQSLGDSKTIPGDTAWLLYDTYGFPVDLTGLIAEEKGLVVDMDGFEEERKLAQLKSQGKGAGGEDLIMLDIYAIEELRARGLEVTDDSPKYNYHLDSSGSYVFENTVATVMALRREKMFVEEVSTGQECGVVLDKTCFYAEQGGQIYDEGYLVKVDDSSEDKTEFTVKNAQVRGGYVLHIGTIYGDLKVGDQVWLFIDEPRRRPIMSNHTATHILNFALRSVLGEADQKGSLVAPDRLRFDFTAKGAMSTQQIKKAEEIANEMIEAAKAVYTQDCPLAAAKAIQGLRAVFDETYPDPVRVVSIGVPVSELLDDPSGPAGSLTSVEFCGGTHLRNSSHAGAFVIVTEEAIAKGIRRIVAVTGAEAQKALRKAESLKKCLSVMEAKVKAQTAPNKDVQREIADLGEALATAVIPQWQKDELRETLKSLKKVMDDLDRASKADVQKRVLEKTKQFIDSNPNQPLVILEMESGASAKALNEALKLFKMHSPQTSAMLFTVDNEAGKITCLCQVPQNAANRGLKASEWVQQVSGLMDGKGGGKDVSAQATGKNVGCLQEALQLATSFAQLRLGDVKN
From the text: (§1) Furthermore, we examined the interaction of Tanshinone I with additional AlaRS CMT mutants capable of binding to Nrp1 and causing conformational changes by BLI and proteolysis assays on additional related mutants.
(§2) Figure 5 BLI and proteolytic digestion assay of AlaRS mutants with Tanshinone I. Binding sensorgrams for the interaction of Tanshinone I with immobilized AlaRS^R329H (A), AlaRS^G102R (C), AlaRS^R326W (E), and AlaRS^E337K (G). Each sensorgram contains five curves generated from five different concentrations. The KD values are presented as the mean ± SD and experiments were performed in triplicate. The AlaRS^N71Y (B), AlaRS^G102R (D), AlaRS^R326W (F), and AlaRS^E337K (H) proteins (in the presence and absence of Tanshinone I) were incubated with trypsin at different concentrations for three hours before the reactions were quenched, and the products were separated by SDS-PAGE.

AlaRS^G102R = molecular target: T2, AlaRS^G102R (Homo sapiens, UniProt P49588, G102R); assay: Proteolytic digestion assay (trypsin, SDS-PAGE); details: three hours
T2 construct: made in house; host or cells: E. coli BL21 (DE3), pET-21a
T2 sequence (P49588 1-968 G102R): T1 sequence (P49588 1-968 R326W) with G102R, W326R
From the text: as §1, §2

Cc1coc2c1C(=O)C(=O)c1c-2ccc2c(C)cccc12 [Tanshinone I]
Effect on proteolytic fragments / conformation (AlaRS^R326W): distinct proteolytic fragments after Tanshinone I treatment | Effect on proteolytic fragments / conformation (AlaRS^G102R): more prominent bands at 1/100 after Tanshinone I treatment
